For 44 substances, IC50 results are on record in patent US6967196B1, “Sulfonamide compounds and uses thereof” (Bristol-Myers Squibb Company, priority 1999, dated 2005).

As a reminder, the IC50 is the concentration that gives 50% inhibition.

The test system of one assay is amyloid β production in transfected H4 (human neuroglioma) cells stably expressing APP constructs. Put plainly: In vitro cell-based assay of inhibitors of amyloid β production (ELISA). The following applies: transfected H4 cells stably expressing APP constructs; approximately 16 hours incubation; amyloid β in medium by ELISA; read-out: ACTIVITY (IC50, inhibition of amyloid β production). The procedure, abridged:
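Plate wt/variant APP cells; ≥6 h later swap to medium + compound (10-100 μM screen); incubate ~16 h; sample medium; Aβ ELISA with C-terminal capture / N-terminal detection Abs; quantify vs Aβ standard curve.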
For the substance “(R)-4-Chloro-N-(2,5-difluorophenyl)-N-[1-[4-fluoro-2-[1-(1,1-dioxo-2-methyl-4-thiomorpholinyl)butanoyl]phenyl]ethyl]benzenesulfonamide [Example 1277]”, the IC50 was at most 25 nM.
On the same count and under the same terms, with “(R)-4-Chloro-N-(2,5-difluorophenyl)-N-[1-[4-fluoro-2-[1-(2-methyl-4-thiomorpholinyl)butanoyl]phenyl]ethyl]benzenesulfonamide [Example 1276]” the figure was at most 25 nM.

The assay is the same for the next values; noted with them: transfected H4 cells stably expressing APP; approx. 16 h incubation; amyloid β in medium by ELISA; read-out: ACTIVITY (IC50, inhibition of amyloid β production).
Take “(2E)-N-{2-[2-(1-{[(4-chlorophenyl)sulfonyl]-2,5-difluoroanilino}ethyl)phenoxy]ethyl}-N-ethyl-2-butenamide [Example 649]”: the IC50 is 100 to 500 nM.
On the same count and under the same terms, the result for “(2S)-2-[[2-((1R)-1-{[(4-chlorophenyl)sulfonyl]-2,5-difluoroanilino}ethyl)benzyl](methyl)amino]propanoic acid hydrochloride [Example 659]” reads 100 to 500 nM; that for “(2Z)-N-{3-[2-(1-{[(4-chlorophenyl)sulfonyl]-2,5-difluoroanilino}ethyl)phenoxy]propyl}-3-phenyl-2-propenamide [Example 732]”, 100 to 500 nM; that for “(2Z)-N-{3-[2-(1-{[(4-chlorophenyl)sulfonyl]-2,5-difluoroanilino}ethyl)phenoxy]propyl}-N-methyl-3-phenyl-2-propenamide [Example 738]”, 100 to 500 nM.
On the same count and under the same terms, the result for “N-{2-[2-(1-{[(4-chlorophenyl)sulfonyl]-2,5-difluoroanilino}ethyl)phenoxy]ethyl}-2-ethyl-N-methylhexanamide [Example 793]” reads 100 to 500 nM; that for “N-{2-[2-(1-{[(4-chlorophenyl)sulfonyl]-2,5-difluoroanilino}ethyl)phenoxy]ethyl}-3-cyclopentyl-N-methylpropanamide [Example 653]”, 100 to 500 nM.
In the case of “N-{2-[2-(1-{[(4-chlorophenyl)sulfonyl]-2,5-difluoroanilino}ethyl)phenoxy]ethyl}-N-ethyl-1-adamantanecarboxamide [Example 769]”, the IC50 fell in the range of 100 to 500 nM.
Same read-out and setting: with “N-{2-[2-(1-{[(4-chlorophenyl)sulfonyl]-2,5-difluoroanilino}ethyl)phenoxy]ethyl}-N-ethyl-2-(2-thienyl)acetamide [Example 705]” the figure was 100 to 500 nM.
Consider “N-{2-[2-(1-{[(4-chlorophenyl)sulfonyl]-2,5-difluoroanilino}ethyl)phenoxy]ethyl}-N-ethyl-3-methylbutanamide [Example 694]”, for which the IC50 lay in the range of 100 to 500 nM.
Same read-out and setting: the result for “N-{2-[2-(1-{[(4-chlorophenyl)sulfonyl]-2,5-difluoroanilino}ethyl)phenoxy]ethyl}-N-ethylbutanamide [Example 646]” reads 100 to 500 nM; that for “N-{2-[2-(1-{[(4-chlorophenyl)sulfonyl]-2,5-difluoroanilino}ethyl)phenoxy]ethyl}-N-ethylcyclopentanecarboxamide [Example 721]”, 100 to 500 nM.
Same read-out and setting: the result for “N-{2-[2-(1-{[(4-chlorophenyl)sulfonyl]-2,5-difluoroanilino}ethyl)phenoxy]ethyl}-N-methylpentanamide [Example 664]” reads 100 to 500 nM.
Still for that read-out and setting: the result for “N-{2-[2-(1-{[(4-chlorophenyl)sulfonyl]-2,5-difluoroanilino}ethyl)phenoxy}ethyl}-N-ethyl-3-methyl-2-butenamide [Example 642]” reads 100 to 500 nM; that for “N-{3-[2-(1-{3-[2-(1-{[(4-chlorophenyl)sulfonyl]-2,5-difluoroanilino}ethyl)phenoxy]butyl}-2-cyclohexyl-N-methylacetamide [Example 686]”, 100 to 500 nM; that for “N-{3-[2-(1-{[(4-chlorophenyl)sulfonyl]-2,5-difluoroanilino}ethyl)phenoxy]butyl}-3-cyclopentyl-N-methylpropanamide [Example 712]”, 100 to 500 nM.
As for “N-{3-[2-(1-{[(4-chlorophenyl)sulfonyl]-2,5-difluoroanilino}ethyl)phenoxy]butyl}-N-ethyl-2-furamide [Example 708]”, the IC50 lay in the range of 100 to 500 nM.
Take “N-{3-[2-(1-{[(4-chlorophenyl)sulfonyl]-2,5-difluoroanilino}ethyl)phenoxy]ethyl}-N-methyl-2-(trifluoromethyl)benzamide [Example 697]”: the IC50 was 100 to 500 nM.
Same read-out and setting: with “N-{3-[2-(1-{[(4-chlorophenyl)sulfonyl]-2,5-difluoroanilino}ethyl)phenoxy]propyl}-2,2-diphenylacetamide [Example 784]” the figure was 100 to 500 nM; with “N-{3-[2-(1-{[(4-chlorophenyl)sulfonyl]-2,5-difluoroanilino}ethyl)phenoxy]propyl}-2,3,4,5,6-pentafluorobenzamide [Example 742]”, 100 to 500 nM.
On the same count and under the same terms, the result for “N-{3-[2-(1-{[(4-chlorophenyl)sulfonyl]-2,5-difluoroanilino}ethyl)phenoxy]propyl}-2,3,4,5-tetrafluoro-N-methylbenzamide [Example 778]” reads 100 to 500 nM; that for “N-{3-[2-(1-{[(4-chlorophenyl)sulfonyl]-2,5-difluoroanilino}ethyl)phenoxy]propyl}-2,3,4-trifluoro-N-methylbenzamide [Example 670]”, 100 to 500 nM.

The same assay, now with this note: transfected H4 cells stably expressing APP; approximately 16 hours incubation; amyloid β in medium by ELISA; Table B; read-out: ACTIVITY (IC50, inhibition of amyloid β production).
As for “(2E)-N-{4-[2-(1-{[(4-chlorophenyl)sulfonyl]-2,5-difluoroanilino}ethyl)phenoxy]butyl}-N-ethyl-2-butenamide [Example 514]”, the IC50 lay within 100 to 500 nM.
On the same count and under the same terms, with “(2E)-N-{4-[2-(1-{[(4-chlorophenyl)sulfonyl]-2,5-difluoroanilino}ethyl)phenoxy]butyl}-N-methyl-2-butenamide [Example 495]” the figure was 100 to 500 nM; with “N-{2-[2-(1-{[(4-chlorophenyl)sulfonyl]-2,5-difluoroanilino}ethyl)phenoxy]ethyl}-N-ethylpropanamide [Example 504]”, 100 to 500 nM.
As for “N-{2-[2-(1-{[(4-chlorophenyl)sulfonyl]-2,5-difluoroanilino}ethyl)phenoxy]ethyl}-N-methylcyclohexanecarboxamide [Example 511]”, the IC50 was in the range of 100 to 500 nM.

Staying with this assay, now noted: transfected H4 cells stably expressing APP; approximately 16 hours incubation; amyloid β in medium by ELISA; read-out: ACTIVITY (IC50, inhibition of amyloid β production).
Regarding “(2E)-3-[2-({[(4-chlorophenyl)sulfonyl]anilino}methyl)phenyl]-2-propenoic acid [Example 1035]”, the IC50 was above 500 nM.
Same read-out and setting: with “(2E)-3-[2-({[(4-chlorophenyl)sulfonyl]anilino}methyl)phenyl]-N-methoxy-N-methyl-2-propenamide [Example 1034]” the figure was above 500 nM.
Same read-out and setting: with “(2R)-2-{[(4-chlorophenyl)sulfonyl]-2,5-difluoroanilino}propanoic acid [Example 1013]” the figure was above 500 nM.
As to “(2R)-2-{[(4-chlorophenyl)sulfonyl]-2,5-difluoroanilino}propyl isonicotinate [Example 1057]”, the IC50 was above 500 nM.
On the same count and under the same terms, with “(2R)-2-{[(4-chlorophenyl)sulfonyl]-2,5-difluoroanilino}propyl nicotinate [Example 1058]” the figure was above 500 nM.
Take “(2R, 3R)-2,4-bis[(4-methylbenzoyl)oxy]butanedioic acid compound with 4-chloro-N-(2,5-difluorophenyl)-N-((1R)-1-{2-[3-(1H-imidazol-1- [Example 1049]”: the IC50 was above 500 nM.
The same measure, in the same setting: the result for “(E)-N-(2,5-dichlorophenyl)-2-phenyl-N-{2-[3-(1-piperidinyl)propoxy]benzyl}ethanesulfonamide hydrochloride [Example 994]” reads above 500 nM.
Still for that read-out and setting: the result for “N-hydroxy-3-(2-{[(phenylsulfonyl)anilino]methyl}phenyl)propanamide [Example 1042]” reads above 500 nM; that for “N-{2-[2-(1-{[(4-chlorophenyl)sulfonyl]-2,5-difluoroanilino}ethyl)phenoxy]ethyl}-2-cyclohexyl-N-methylacetamide [Example 844]”, 100 to 500 nM.
Turning to “N-{2-[2-(1-{[(4-chlorophenyl)sulfonyl]-2,5-difluoroanilino}ethyl)phenoxy]ethyl}-3-cyclopentyl-N-ethylpropanamide [Example 857]”, the IC50 lay in the range of 100 to 500 nM.
Same read-out and setting: with “N-{2-[2-(1-{[(4-chlorophenyl)sulfonyl]-2,5-difluoroanilino}ethyl)phenoxy]ethyl}-N,2-diethylhexanamide [Example 831]” the figure was 100 to 500 nM; with “N-{2-[2-(1-{[(4-chlorophenyl)sulfonyl]-2,5-difluoroanilino}ethyl)phenoxy]ethyl}-N-ethylacrylamide [Example 949]”, above 500 nM; with “N-{2-[2-(1-{[(4-chlorophenyl)sulfonyl]-2,5-difluoroanilino}ethyl)phenoxy]ethyl}-N-ethyltetradecanamide [Example 928]”, above 500 nM.
Same read-out and setting: the result for “N-{2-[2-(1-{[(4-chlorophenyl)sulfonyl]-2,5-difluoroanilino}ethyl)phenoxy]ethyl}-N-methyltetradecanamide [Example 854]” reads 100 to 500 nM; that for “N-{3-[2-(1-{[(4-chlorophenyl)sulfonyl]-2,5-difluoroanilino}ethyl)phenoxy]ethyl}-N-methyl-3,5-bis(trifluoromethyl)benzamide [Example 931]”, above 500 nM; that for “N-{3-[2-(1-{[(4-chlorophenyl)sulfonyl]-2,5-difluoroanilino}ethyl)phenoxy]propyl}-2,3,4,5 tetrafluorobenzamide [Example 863]”, 100 to 500 nM.
As to “N-{3-[2-(1-{[(4-chlorophenyl)sulfonyl]-2,5-difluoroanilino}ethyl)phenoxy]propyl}-2,3,4,5,6-pentafluoro-N-methylbenzamide [Example 828]”, the IC50 lay within 100 to 500 nM.
